Columns and labels:
Assay in all cases: relative viability (nuclei count vs DMSO), 5 days (fraction); higher = more cells survive
Sulindac + Decitabine = compound: CC1=C(CC(=O)O)c2cc(F)ccc2/C1=C\c1ccc([S+](C)[O-])cc1 [Sulindac] + Nc1ncn([C@H]2C[C@H](O)[C@@H](CO)O2)c(=O)n1 [Decitabine] (partner 2 µM)
How it was run: (§1)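 Medians of duplicate plates are given as relative viability. That measure is the nuclei count in treated wells divided by the count in vehicle wells. Counts were taken on 4× images of lung cancer cell lines in 1536-well plates, 5 days after pin-tool dosing the day after seeding with one drug alone or a fixed anchor-drug dose plus five library-drug doses (not always all listed) in √10 steps.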

Staurosporine + Olaparib = compound: CN[C@@H]1C[C@H]2O[C@@](C)([C@@H]1OC)n1c3ccccc3c3c4c(c5c6ccccc6n2c5c31)C(=O)NC4 [Staurosporine] + O=C(c1cc(Cc2n[nH]c(=O)c3ccccc23)ccc1F)N1CCN(C(=O)C2CC2)CC1 [Olaparib] (partner 8 µM)
How it was run: as §1

[1] = compound: O=c1[nH]cc(F)c(=O)[nH]1 [5-Fluorouracil] + C[C@@H](Oc1cc(-c2cnn(C3CCNCC3)c2)cnc1N)c1c(Cl)ccc(F)c1Cl [Crizotinib] (partner 1 µM)
How it was run: as §1

[2] = compound: O=c1[nH]cc(F)c(=O)[nH]1 [5-Fluorouracil] + C[C@]1(O)C[C@@H](c2nc(-c3ccc4ccc(-c5ccccc5)nc4c3)c3c(N)nccn32)C1 [Linsitinib] (partner 1 µM)
How it was run: as §1

| Cell Line | relative viability (Sulindac + Decitabine; first compound 0.08 µM) | relative viability (Sulindac + Decitabine; first compound 0.253 µM) | relative viability (Sulindac + Decitabine; first compound 2.53 µM) | relative viability (Sulindac + Decitabine; first compound 8 µM) | relative viability (Staurosporine + Olaparib; first compound 0.005 µM) | relative viability (Staurosporine + Olaparib; first compound 0.05 µM) | relative viability (Staurosporine + Olaparib; first compound 0.1581 µM) | relative viability (Staurosporine + Olaparib; first compound 0.5 µM) | relative viability ([1]; first compound 0.02 µM) | relative viability ([1]; first compound 0.2 µM) | relative viability ([1]; first compound 0.6325 µM) | relative viability ([1]; first compound 2 µM) | relative viability ([2]; first compound 0.02 µM) | relative viability ([2]; first compound 0.2 µM) | relative viability ([2]; first compound 0.6325 µM) | relative viability ([2]; first compound 2 µM) | relative viability (Sulindac + Decitabine; first compound 0.8 µM) | relative viability (Staurosporine + Olaparib; first compound 0.01581 µM) |
| --- | --- | --- | --- | --- | --- | --- | --- | --- | --- | --- | --- | --- | --- | --- | --- | --- | --- | --- |
| HCC-366 | 0.388 | 0.317 | 0.334 | 0.412 | 0.247 | 0.12 | 0.0287 | 0.0185 | 0.71 | 0.531 | 0.224 | 0.0745 | 0.673 | 0.82 | 0.254 | 0.0796 | – | – |
| HCC-827 | 0.342 | 0.31 | 0.332 | 0.291 | 0.666 | 0.467 | 0.322 | 0.22 | 0.859 | 0.891 | 0.604 | 0.416 | 0.909 | 0.95 | 0.57 | 0.405 | 0.328 | 0.5 |
| HOP-62 | 0.214 | 0.222 | 0.217 | 0.246 | 0.441 | 0.0992 | 0.143 | 0.104 | 0.938 | 0.733 | 0.9 | 0.781 | 1.11 | 1.03 | 0.86 | 0.765 | 0.229 | 0.157 |
| IA-LM | – | – | – | – | 0.562 | 0.412 | 0.215 | 0.0689 | 1.03 | 0.401 | 0.254 | 0.289 | 0.597 | 0.485 | 0.175 | 0.213 | – | 0.51 |
| LC-2-ad | 0.954 | 0.945 | 0.823 | 0.9 | 0.684 | 0.483 | 0.154 | 0.0646 | 0.431 | 0.417 | 0.289 | 0.216 | 0.868 | 0.798 | 0.463 | 0.299 | 0.57 | 0.546 |
| LCLC-97TM1 | 0.208 | 0.263 | 0.247 | 0.232 | 0.42 | 0.194 | 0.236 | 0.191 | 0.349 | 0.552 | 0.244 | 0.171 | 0.175 | 0.193 | 0.153 | 0.144 | 0.225 | 0.12 |
| LCLC-103H | 0.748 | 0.787 | 0.661 | 0.729 | 0.851 | 0.403 | 0.247 | – | 1.1 | 1.11 | 0.883 | 0.566 | 1.16 | 1.04 | 0.955 | 0.645 | 0.738 | 0.477 |
| LK-2 | 0.334 | 0.361 | 0.239 | 0.306 | – | 0.518 | 0.289 | 0.0843 | 0.246 | – | 0.21 | 0.221 | 0.767 | 0.5 | 0.584 | 0.334 | 0.277 | 0.432 |
| LOU-NH91 | 0.776 | 0.8 | 0.798 | 0.873 | 0.816 | 0.572 | 0.344 | 0.246 | 0.798 | 0.697 | 0.547 | 0.341 | 0.921 | 0.889 | 0.646 | 0.415 | 0.715 | 0.577 |
| LU99A | 1.05 | 0.806 | 0.782 | 1.17 | 0.228 | 0.141 | 0.138 | 0.121 | 0.579 | 0.521 | 0.521 | 0.384 | 0.549 | 0.607 | 0.426 | 0.422 | 0.86 | 0.164 |
| LXF-289 | 0.404 | 0.416 | 0.381 | 0.452 | 1.1 | 0.395 | 0.164 | 0.227 | 0.793 | 0.574 | 0.338 | 0.277 | 1 | 0.67 | 0.389 | 0.308 | 0.372 | 0.193 |
| NCI-H522 | 0.643 | 0.718 | 0.667 | 0.687 | 0.669 | 0.53 | 0.471 | 0.429 | – | – | – | – | – | – | – | – | 0.652 | 0.685 |
| NCI-H1299 | – | – | – | – | 0.493 | 0.251 | 0.117 | – | 0.952 | 0.976 | 0.943 | 0.682 | 1.09 | 0.982 | 0.825 | 0.59 | – | 0.263 |
| NCI-H1395 | 0.726 | 0.689 | 0.659 | 0.832 | 0.443 | 0.379 | 0.328 | 0.274 | – | – | – | – | 0.884 | 1.19 | 1.03 | 1.25 | 0.664 | 0.395 |
| NCI-H1563 | – | – | – | – | – | – | – | – | 0.798 | 0.806 | 0.892 | 0.699 | 1.08 | 1.25 | 1.12 | 0.994 | – | – |
| NCI-H1648 | 0.641 | 0.558 | 0.462 | 0.452 | 0.893 | 0.311 | 0.257 | 0.259 | – | – | – | – | – | – | – | – | – | 0.376 |
| NCI-H1650 | 0.4 | 0.495 | 0.378 | 0.473 | 0.703 | 0.385 | 0.306 | 0.0918 | 0.859 | 0.801 | 0.505 | 0.367 | – | – | – | – | 0.421 | 0.598 |
| NCI-H1703 | – | – | – | – | 0.269 | 0.237 | 0.112 | 0.106 | 0.83 | 0.564 | 0.378 | 0.479 | 0.665 | 1.16 | 0.856 | 0.484 | – | 0.165 |
| NCI-H1793 | 0.406 | 0.521 | 0.486 | 0.588 | 0.815 | 0.3 | 0.15 | 0.14 | – | – | – | – | 0.691 | 0.92 | 0.815 | 0.496 | – | – |
| NCI-H2170 | 0.521 | 0.461 | 0.434 | 0.455 | 0.617 | 0.455 | 0.223 | 0.165 | 1.28 | 1.1 | 0.608 | 0.468 | – | – | – | – | 0.436 | – |
| NCI-H2228 | – | – | – | – | 0.375 | 0.18 | 0.0961 | 0.0588 | 0.441 | 0.483 | 0.457 | 0.343 | 0.443 | 0.627 | 0.48 | 0.36 | – | 0.211 |
| NCI-H2342 | 0.681 | 0.706 | 0.648 | 0.786 | 0.436 | 0.363 | 0.398 | 0.394 | – | – | – | – | – | – | – | – | 0.591 | 0.315 |
| SW 900 | 0.449 | 0.432 | – | 0.489 | 0.544 | 0.362 | 0.212 | 0.169 | – | – | – | – | – | – | – | – | – | 0.428 |

Reference: the supplement of paper PMC10307832
